# Test results from patent US20190119298A1, “FUSED 3-PHENYLTETRAMIC ACID DERIVATIVES HAVING HERBICIDAL ACTION” (Bayer CropScience Aktiengesellschaft, priority 2016, published 2019).
# Columns and labels:
# Type in all cases: in vivo
# Echinochloa crus-galli [1] = experiment: Pre-emergence herbicidal effect; conditions: 320 g/ha, scored visually after 3 weeks vs untreated controls, 100% = plants have died
# Text: (§1) Seeds of monocotyledonous and dicotyledonous weed plants and crop plants are laid out in sandy loam soil in wood-fibre pots and covered with soil. The compounds of the invention, formulated in the form of wettable powders (WP) or as emulsion concentrates (EC), are then applied to the surface of the covering soil as aqueous suspension or emulsion at a water application rate equating to 600 to 800 L/ha with addition of 0.2% wetting agent. After the treatment, the pots are placed in a greenhouse and kept under good growth conditions for the trial plants. The damage to the test plants is scored visually after a test period of 3 weeks by comparison with untreated controls (herbicidal activity in percent (%): 100% activity=the plants have died, 0% activity=like control plants). ECHCG: Echinochloa crus-galli
# Alopecurus myosuroides [2] = experiment: Post-emergence herbicidal effect; conditions: one-leaf stage, 320 g/ha, assessed visually after about 3 weeks, 100% = plants have died
# Description: (§2) ALOMY: Alopecurus myosuroides Seeds of monocotyledonous and dicotyledonous weed and crop plants are laid out in sandy loam soil in wood-fibre pots, covered with soil and cultivated in a greenhouse under good growth conditions. 2 to 3 weeks after sowing, the test plants are treated at the one-leaf stage. The compounds of the invention, formulated in the form of wettable powders (WP) or as emulsion concentrates (EC), are then sprayed onto the green parts of the plants as aqueous suspension or emulsion at a water application rate equating to 600 to 800 L/ha with addition of 0.2% wetting agent. After the test plants have been left to stand in the greenhouse under optimal growth conditions for about 3 weeks, the action of the preparations is assessed visually in comparison to untreated controls (herbicidal action in percent (%): 100% activity=the plants have died, 0% activity=like control plants).
# Setaria viridis [3] = experiment: Pre-emergence herbicidal effect; conditions: 320 g/ha, scored visually after 3 weeks vs untreated controls, 100% = plants have died
# Text: as §1, with “SETVI: Setaria viridis” for “ECHCG: Echinochloa crus-galli”
# Avena fatua [4] = experiment: Post-emergence herbicidal effect; conditions: one-leaf stage, 320 g/ha, assessed visually after about 3 weeks, 100% = plants have died
# Description: as §2, with “AVEFA: Avena fatua” for “ALOMY: Alopecurus myosuroides”
# Lolium multiflorum [5] = experiment: Post-emergence herbicidal effect; conditions: one-leaf stage, 320 g/ha, assessed visually after about 3 weeks, 100% = plants have died
# Description: as §2, with “LOLMU: Lolium multiflorum” for “ALOMY: Alopecurus myosuroides”
# Echinochloa crus-galli [6] = experiment: Post-emergence herbicidal effect; conditions: one-leaf stage, 320 g/ha, assessed visually after about 3 weeks, 100% = plants have died
# Description: as §2, with “ECHCG: Echinochloa crus-galli” for “ALOMY: Alopecurus myosuroides”
# Setaria viridis [7] = experiment: Post-emergence herbicidal effect; conditions: one-leaf stage, 320 g/ha, assessed visually after about 3 weeks, 100% = plants have died
# Description: as §2, with “SETVI: Setaria viridis” for “ALOMY: Alopecurus myosuroides”
# Avena fatua [8] = experiment: Pre-emergence herbicidal effect; conditions: 320 g/ha, scored visually after 3 weeks vs untreated controls, 100% = plants have died
# Text: as §1, with “AVEFA: Avena fatua” for “ECHCG: Echinochloa crus-galli”
# Lolium multiflorum [9] = experiment: Pre-emergence herbicidal effect; conditions: 320 g/ha, scored visually after 3 weeks vs untreated controls, 100% = plants have died
# Text: as §1, with “LOLMU: Lolium multiflorum” for “ECHCG: Echinochloa crus-galli”
# Alopecurus myosuroides [10] = experiment: Pre-emergence herbicidal effect; conditions: 320 g/ha, scored visually after 3 weeks vs untreated controls, 100% = plants have died
# Text: as §1, with “ALOMY: Alopecurus myosuroides” for “ECHCG: Echinochloa crus-galli”
SMILES,Pre-emergence action ECHCG (herbicidal activity in percent) (Echinochloa crus-galli [1]),Post-emergence effectiveness ALOMY (herbicidal action in percent) (Alopecurus myosuroides [2]),Pre-emergence action SETVI (herbicidal activity in percent) (Setaria viridis [3]),Post-emergence effectiveness AVEFA (herbicidal action in percent) (Avena fatua [4]),Post-emergence effectiveness LOLMU (herbicidal action in percent) (Lolium multiflorum [5]),Post-emergence effectiveness ECHCG (herbicidal action in percent) (Echinochloa crus-galli [6]),Post-emergence effectiveness SETVI (herbicidal action in percent) (Setaria viridis [7]),Pre-emergence action AVEFA (herbicidal activity in percent) (Avena fatua [8]),Pre-emergence action LOLMU (herbicidal activity in percent) (Lolium multiflorum [9]),Pre-emergence action ALOMY (herbicidal activity in percent) (Alopecurus myosuroides [10])
Cc1cc(C)c(C2=C(OC(=O)C(C)(C)C)C3CCOCCN3C2=O)c(C)c1 (stereo not drawn) [Ib-1-11],100%,100%,100%,100%,100%,100%,100%,90%,100%,90%
CCc1cc(C)cc(C)c1C1=C(O)C2CCOCCN2C1=O (stereo not drawn) [Ia-1-2],100%,100%,100%,100%,100%,100%,100%,100%,100%,100%
CCOC(=O)OC1=C(c2c(C)cc(C)cc2C)C(=O)N2CCOCCC12 (stereo not drawn) [Ib-1-10],100%,100%,100%,100%,100%,100%,100%,90%,100%,80%
CCc1cc(C)cc(CC)c1C1=C(OC(=O)C(C)(C)C)C2CCOCCN2C1=O (stereo not drawn) [Ib-1-3],100%,100%,100%,100%,100%,100%,100%,100%,100%,100%
CCOC(=O)OC1=C(c2c(CC)cc(C)cc2CC)C(=O)N2CCOCCC12 (stereo not drawn) [Ib-1-2],100%,100%,100%,100%,100%,100%,100%,100%,100%,100%
CCc1cc(C)cc(C)c1C1=C(OC(=O)C(C)(C)C)C2CCOCCN2C1=O (stereo not drawn) [Ib-1-8],100%,100%,100%,100%,100%,100%,100%,100%,100%,100%
